{"source": "patent US12036190B2", "about": "“Methods and compositions for the treatment of cytoplasmic glycogen storage disorders” (Duke University, priority 2015, dated 2024)", "key": {"[1]": {"tested_on": "G6pc siRNA knockdown AML-12 cells", "settings": "Oil Red O, duplicate", "from_the_text": "In brief, a wide array of drugs was selected, including those that modulate autophagy via the […] pathway, those that do so through AMPK modulation to act through mTORC1, and those using yet-undetermined pathways. Analysis of additional literature led to the selection of three concentrations of each compound to be tested in cell culture using the G6pc siRNA knockdown AML-12 mouse hepatocyte cell line model of GSD Ia as an initial screen for the drugs.\nDrug concentrations were chosen based on similarity to published concentrations in either cell culture models resulting in target effects or autophagy, or in vivo extracellular fluid concentrations following animal treatments. The latter case is noted with the fluid type. Concentrations used in our in vitro AML-12 cell culture treatments are listed as the low, medium, and high concentrations that were screened.\nThe first test using AML-12 cells was the Oil Red 0 stain to examine the presence of lipid vacuoles in cells given the treatments.\nG6pc siRNA knockdown AML-12 cells were given three different doses of each drug treatment. After 72 hours of growth, the media was changed to ketogenic media and appropriate quantities of each drug were added. This was performed in duplicate. Oil Red 0 staining was then performed and bright field images acquired at 10× magnification.\nDrug treatments at three doses each were performed on G6pc siRNA knockdown AML-12 cells. Following oil red 0 staining the whole plates were evaluated visually for reductions in lipid accumulation. Treatments were performed in duplicate. —/0/+/++/+++ indicates the degree of improvement, or lipid reduction, caused by the treatment, with + indicating positive benefits."}, "[2]": {"settings": "in vivo extracellular fluid concentration; cited from earlier work"}, "[3]": {"tested_on": "G6pc knockdown AML-12 cells", "assay": "LC3 Western blot of drug-treated G6pc knockdown AML-12 cells", "format": "cell-based, mouse", "settings": "24 hours; conditions with optimal effects in the Oil Red O screen", "procedure": "FIG. 27 illustrates LC3 Western blot of drug-treated G6pc knockdown AML-12 cells. Western blotting was performed on AML-12 cells incubated for 24 hours with the described drug conditions. LC3 was quantified and normalized against each condition's β-actin protein quantification.\nIn addition to Oil Red O staining, cells were analyzed via Western blots for restored LC3 expression for each drug, under the conditions that had optimal effects in the Oil Red O screen (FIG. 27). Since the Western antibody previously used successfully for rapamycin treatment LC3 blots had been discontinued by the manufacturer, we tested two alternative antibodies and chose the one from Cell Signaling Technologies because it gave the strongest signal-to-noise ratio under our experimental conditions.\nWestern blotting was performed on AML-12 cells incubated for 24 hours with the described drug conditions. LC3 was quantified and normalized against each condition's β-actin protein quantification."}, "autophagy": {"tested_on": "autophagy", "settings": "Table 4; drugs known to enhance autophagy; cited from earlier work"}}, "data": [{"smiles": "NC(=O)N1c2ccccc2C=Cc2ccccc21", "note": "[Carbamazepine]", "values": [{"measurement": "Lipid Reduction Scoring, High dose", "setting": "[1]; high concentration of Table 6", "result": 0}, {"measurement": "Lipid Reduction Scoring, Low dose", "setting": "[1]; low concentration of Table 6", "result": "+++"}, {"measurement": "Lipid Reduction Scoring, Medium dose", "setting": "[1]; medium concentration of Table 6", "result": "+"}, {"measurement": "Published Concentration, cerebrospinal fluid", "setting": "[2]", "result": "0.7 to 1.5", "unit": "µg/mL"}, {"measurement": "LC3 normalized against β-actin (Western blot)", "setting": "[3]", "result": "increase in LC3 autophagic marker"}, {"measurement": "Effect", "setting": "autophagy", "result": "Activated autophagy, reduced hepatosteatosis"}]}]}
